Earlier results in publication PMC11409674, “Raffinocyclicin is a novel plasmid-encoded circular bacteriocin produced by Lactococcus raffinolactis with broad-spectrum activity against many gram-positive food pathogens” (Applied and environmental microbiology, 2024).

Test system: L. lactis
Design: method as in 7 sources, ref 29 = [29]; PMID 18552180; doi:10.1128/AEM.00817-08; 29 Martin-Visscher LA van Belkum MJ Garneau-Tsodikova S Whittal RM Zheng J McMullen LM Vederas JC Isolation and characterization of carnocyclin A, a novel circular bacteriocin produced by Carnobacteri ||| ref 30 = [30]; PMID 29177092; doi:10.1099/mgen.0.000134; 30 van Heel AJ Montalban-Lopez M Oliveau Q Kuipers OP Genome-guided identification of novel head-to-tail cyclized antimicrobial peptides, exemplified by the discovery of pumilarin Microb Genom 2017 3 ||| ref 31 = [31]; PMID 29030449; doi:10.1128/AEM.01801-17; 31 Borrero J Kelly E O’Connor PM Kelleher P Scully C Cotter PD Mahony J van Sinderen D Plantaricyclin a, a novel circular bacteriocin produced by Lactobacillus plantarum NI326: purification, character ||| ref 32 = [32]; PMID 17464077; doi:10.1099/mic.0.2006/005967-0; 32 Wirawan RE Swanson KM Kleffmann T Jack RW Tagg JR Uberolysin: a novel cyclic bacteriocin produced by Streptococcus uberis Microbiology 2007 153 1619 1630 10.1099/mic.0.2006/005967-0 17464077 ||| ref 27 = [27]; PMID 21057028; doi:10.1128/AEM.01173-10; 27 Borrero J Brede DA Skaugen M Diep DB Herranz C Nes IF Cintas LM Hernández PE Characterization of garvicin ML, a novel circular bacteriocin produced by Lactococcus garvieae DCC43, isolated from mall ||| ...
Conditions: five strains of L. lactis; cited from earlier work

## plantaricyclin A
  inhibition of L. lactis strains tested: inhibited all five strains
